Tests used:
[1] = biological target: T1, Heat shock protein HSP 90-alpha (Homo sapiens, UniProt P07900)
Description: Binding affinity to human HSP90alpha assessed as 2D1H-15N chemical shift perturbation by NMR spectroscopy

[2] = biological target: T1, Heat shock protein HSP 90-alpha; remark: listed apart in the source
Description: Inhibition of human N-terminal GST-tagged HSP90alpha expressed in Escherichia coli after 1 hr using 10 mM of ATP and malachite green by microplate reader

[3] = biological target: T1, Heat shock protein HSP 90-alpha; remark: listed apart in the source
Description: Binding affinity to biotinylated N-terminal human HSP90alpha using of streptavidin coated surface by SPR binding assay

| Structure (SMILES) | Kd [1] | IC50 [2] | Kd [3] |
| --- | --- | --- | --- |
| CSc1nc(N)nc(-c2ccncc2)n1 | > 1 µM |  |  |
| Nc1nccc(-c2nccs2)n1 | 0.57 µM |  |  |
| CSc1nc(N)nc(SCCN2CCOCC2)n1 | 2.3 µM | 33 µM |  |
| Oc1ccc2c(c1)CCc1c[nH]nc1-2 |  |  | 750 nM |
| CSc1nc(N)nc(-c2ccccc2C)n1 | 4.5 µM | 0.57 µM |  |
| Nc1ncncn1 | 10 µM |  |  |
| CSc1nc(N)nc(SCc2ccccc2)n1 |  | 16 µM |  |
| CSc1nc(N)nc(-c2ccccc2)n1 | 51 µM | 31 µM |  |

More lines, now with the values ahead:

| Kd [1] | IC50 [2] | Kd [3] | Structure (SMILES) |
| --- | --- | --- | --- |
| 300 µM |  |  | Nc1ccncn1 |
| 0.34 µM |  |  | CCCc1nc(N)ncc1C(=O)OCC |
| 79 µM |  |  | Nc1cnccn1 |
| > 1 µM |  |  | CC(=O)c1cnc(N)nc1C |
| 3.7 µM | 24 µM |  | CSc1nc(N)nc(SCc2ccc(Cl)cc2)n1 |
| 0.33 µM |  |  | Nc1ncc2c(n1)-c1ccoc1CC2 |
